From patent US20230278998A1, “Compound containing structure of a five-membered heteroaromatic ring, pharmaceutical compositions thereof and applications thereof” (280 Bio, Inc., priority 2022, published 2023) come the findings set out here.

PARG (389-976), sequence (Q86W56 389-976): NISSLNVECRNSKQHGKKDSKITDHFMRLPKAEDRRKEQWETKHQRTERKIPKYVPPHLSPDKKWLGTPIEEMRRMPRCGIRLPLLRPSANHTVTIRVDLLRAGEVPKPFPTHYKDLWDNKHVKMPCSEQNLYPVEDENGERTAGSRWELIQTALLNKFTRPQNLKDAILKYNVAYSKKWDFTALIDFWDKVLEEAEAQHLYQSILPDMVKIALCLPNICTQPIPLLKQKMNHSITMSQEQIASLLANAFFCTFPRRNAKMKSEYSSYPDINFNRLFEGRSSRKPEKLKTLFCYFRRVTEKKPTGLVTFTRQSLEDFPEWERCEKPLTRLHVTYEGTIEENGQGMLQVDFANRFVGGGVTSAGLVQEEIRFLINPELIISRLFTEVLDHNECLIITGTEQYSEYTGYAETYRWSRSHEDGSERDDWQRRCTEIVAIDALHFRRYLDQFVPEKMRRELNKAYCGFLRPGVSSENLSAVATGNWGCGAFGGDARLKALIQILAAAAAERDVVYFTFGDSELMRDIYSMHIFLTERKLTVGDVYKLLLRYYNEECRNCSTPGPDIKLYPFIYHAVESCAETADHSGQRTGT

One assay concerns the target PARG (389-976) (Homo sapiens (Human), UniProt Q86W56). Briefly: PARG enzyme inhibition assay (TR-FRET). The assay is classed as biochemical. The settings on record: Table 1, class symbol. Here is the method: PARG Enzyme Inhibition Assay
PARG in vitro assays were conducted in standard 384-well plates in a total volume of 15 μL.
(In general: TR-FRET usually uses a lanthanide donor and a delayed reading to cut background.)
In general, IC50 refers to the midpoint of a concentration-inhibition curve. Higher therefore signals weaker potency. For the compound `Cc1nnc(-c2nn(Cc3sc(C)nc3C)c3ccc(S(=O)(=O)NC4(C)CC4)cc23)s1` [Compound 2], the IC50 was under 0.1 µM.

The compound `Cc1nc(C)c(Cn2c(Cl)c(-c3nnc(C(F)F)s3)c3cc(S(=O)(=O)NC4(C)CC4)ccc32)s1` [Compound 7] had an IC50 of under 0.1 µM.

Turning to `Cc1nc(C)c(Cn2nc(-c3nnc(C(F)F)s3)c3nc(S(=O)(=O)NC4(C)CC4)ccc32)s1` [Compound 11], the IC50 was in the range of 0.1 to 1 µM.

Still in this assay, the particulars now being: Table 2, class symbol.
Turning to `Cn1nc(-c2nnc(C(F)F)s2)c2cc(S(=O)(=O)NC3(C)CC3)cc(N3CCn4cncc4C3)c21` [Compound 20], the IC50 is under 0.1 µM.

Compound `Cc1nnc(-c2nn(C)c3c(N4CCN(C(=O)C(C)C)CC4)cc(S(=O)(=O)NC4(C#N)CC4)cc23)s1` [Compound 56] returned an IC50 of under 0.1 µM.

`CC(C)C(=O)N1CCN(c2cc(S(=O)(=O)NC3(C)CC3)cc3c(-c4nnc(C(F)F)s4)nn(CC(F)(F)F)c23)CC1` [Compound 23] returned an IC50 of under 0.1 µM.

In the case of `CC(C)C(=O)N1CCN(c2cc(S(=O)(=O)NC3(C)CC3)cc3c(-c4nnc(C(F)F)s4)nn(C(C)C)c23)CC1` [Compound 16], the IC50 is under 0.1 µM.

For `CCn1nc(-c2nnc(C(F)F)s2)c2cc(S(=O)(=O)NC3(C#N)CC3)cc(N3CCN(C(=O)C(C)C)CC3)c21` [Compound 26], the IC50 is under 0.1 µM.

As for `Cn1nc(-c2nnc(C(F)F)s2)c2cc(S(=O)(=O)NC3(C#N)CC3)cc(N3CCC(CO)CC3)c21` [Compound 44], the IC50 was under 0.1 µM.

On to `Cn1nc(-c2nnc(C(F)F)s2)c2cc(S(=O)(=O)NC3(C)CC3)cc(N3CCN(C(=O)C4CC4)CC3)c21` [Compound 27], for which the IC50 is under 0.1 µM.

Consider `Cn1nc(-c2nnc(C(F)F)s2)c2cc(S(=O)(=O)NC3(C#N)CC3)cc(N3CCN(C(=O)c4ccccn4)CC3)c21` [Compound 43], for which the concentration for half-maximal inhibition (IC50) is under 0.1 µM.

Take `CCn1nc(-c2nnc(C(F)F)s2)c2cc(S(=O)(=O)NC3(C)CC3)cc(N3CCN(C(=O)C(C)C)CC3)c21` [Compound 22]: the IC50 was under 0.1 µM.

Regarding `Cn1nc(-c2nnc(C(F)F)s2)c2cc(S(=O)(=O)NC3(C#N)CC3)cc(N3CCN(C(=O)N4CCCC4)CC3)c21` [Compound 51], the IC50 is under 0.1 µM.

Consider `Cn1nc(-c2nnc(C(F)F)s2)c2cc(S(=O)(=O)NC3(C#N)CC3)cc(N3CCN(S(C)(=O)=O)CC3)c21` [Compound 34], for which the IC50 is under 0.1 µM.

Consider `Cn1nc(-c2nnc(C(F)F)s2)c2cc(S(=O)(=O)NC3(C#N)CC3)cc(N3CCC(O)CC3)c21` [Compound 42], for which the IC50 was under 0.1 µM.

The compound `CC(C)C(=O)N1CCN(c2cc(S(=O)(=O)NC3(C#N)CC3)cc3c(-c4nnc(C(F)F)s4)nn(CC(F)(F)F)c23)CC1` [Compound 30] returned an IC50 of under 0.1 µM.

In the case of `CC(C)C(=O)N1CCN(c2cc(S(=O)(=O)NC3(C#N)CC3)cc3c(-c4nnc(C(F)F)s4)n[nH]c23)CC1` [Compound 18], the IC50 was under 0.1 µM.

The compound `Cc1nc(C)c(Cn2nc(-c3nnc(C(F)F)s3)c3cc(S(=O)(=O)NC4(C)CC4)cc(N4CCN(C(=O)C(C)C)CC4)c32)s1` [Compound 19] came in with an IC50 of under 0.1 µM.

`Cn1nc(-c2nnc(C(F)F)s2)c2cc(S(=O)(=O)NC3(C#N)CC3)cc(N3CCN(C(=O)c4ccccc4)CC3)c21` [Compound 36] came in with an IC50 of under 0.1 µM.

Compound `CC(C)C(=O)N1CCN(c2cc(S(=O)(=O)NC3(C)CC3)cc3c(-c4nnc(C(F)F)s4)nn(CC4CC4)c23)CC1` [Compound 15] showed an IC50 of under 0.1 µM.

In turn, `CC1(NS(=O)(=O)c2ccc3c(c2)c(-c2nnc(C(F)F)s2)nn3Cc2ccc3cncn3c2)CC1` [Compound 59] showed an IC50 of under 0.1 µM.

Still in this assay, the particulars now being: Table 2, value in brackets.
Take `CC(C)C(=O)N1CCN(c2cc(S(=O)(=O)NC3(C#N)CC3)cc3c(-c4nnc(C(F)F)s4)n[nH]c23)CC1` [Compound 18]: half-maximal inhibition (IC50) was put at 0.0009 µM.

Still in this assay, the particulars now being: Table 3, class symbol.
`Cn1nc(-c2nnc(C(F)F)s2)c2cc(S(=O)(=O)NC3(C#N)CC3)cc(N3CCN(C(=O)C4(C)CCC4)CC3)c21` [Compound 143] displayed an IC50 of under 0.1 µM.

As to `CC(C)C(=O)N1C2CCC1CN(c1cc(S(=O)(=O)NC3(C#N)CC3)cc3c(-c4nnc(C(F)F)s4)nn(C)c13)C2` [Compound 102], the IC50 is under 0.1 µM.

As to `CN1CCC(C(=O)N2C3CCC2CN(c2cc(S(=O)(=O)NC4(C#N)CC4)cc4c(-c5nnc(C(F)F)s5)nn(C)c24)C3)C1` (stereo not shown) [Compound 74], the IC50 is under 0.1 µM.

`CC(C)C(=O)N1CCN(c2cc(S(=O)(=O)NC3(C)CC3)cc3c(-c4nnc(C(F)F)s4)nn(C)c23)C[C@@H]1C` [Compound 82] yielded an IC50 of under 0.1 µM.

As for `CC(C)C(=O)N1C2C=C(c3cc(S(=O)(=O)NC4(C#N)CC4)cc4c(-c5nnc(C(F)F)s5)nn(C)c34)CC1COC2` (stereo not shown) [Compound 85], the IC50 is under 0.1 µM.

The compound `Cn1nc(-c2nnc(C(F)F)s2)c2cc(S(=O)(=O)NC3(C#N)CC3)cc(N3CCN(C(=O)C4CCCC4)CC3)c21` [Compound 142] came in with an IC50 of under 0.1 µM.

As to `CC(C)C(=O)N1[C@H](C)CN(c2cc(S(=O)(=O)NC3(C#N)CC3)cc3c(-c4nnc(C(F)F)s4)nn(CC(F)(F)F)c23)C[C@@H]1C` [Compound 104], the IC50 was under 0.1 µM.

The compound `CC(C)C(=O)N1CCN(c2cc(S(=O)(=O)NC3(C#N)CC3)cc3c(-c4nnc(C(F)F)s4)nn(CC(F)(F)F)c23)C[C@@H]1C` [Compound 108] showed an IC50 of under 0.1 µM.

`C[C@H](N)C(=O)N1CCN(c2cc(S(=O)(=O)NC3(C#N)CC3)cc3c(-c4nnc(C(F)F)s4)nn(CC(F)(F)F)c23)CC1` [Compound 111] registered an IC50 of under 0.1 µM.

For the compound `CC(C)C(=O)N1CC2CCC(C1)N2c1cc(S(=O)(=O)NC2(C#N)CC2)cc2c(-c3nnc(C(F)F)s3)nn(C)c12` [Compound 101], the IC50 was under 0.1 µM.

The compound `C[C@H](N)C(=O)N1CC=C(c2cc(S(=O)(=O)NC3(C#N)CC3)cc3c(-c4nnc(C(F)F)s4)nn(C)c23)CC1` [Compound 81] displayed an IC50 of under 0.1 µM.

In turn, `CCn1nc(-c2nnc(C(F)F)s2)c2cc(S(=O)(=O)NC3(C)CC3)cc(N3CCN(C(=O)C(C)C)[C@@H](C)C3)c21` [Compound 92] came in with an IC50 of under 0.1 µM.

In turn, `CC(C)C(=O)N1C2CCC1CN(c1cc(S(=O)(=O)NC3(C#N)CC3)cc3c(-c4nnc(C(F)F)s4)nn(CC#N)c13)C2` [Compound 122] had an IC50 of under 0.1 µM.

In turn, `C[C@H](O)C(=O)N1C2C=C(c3cc(S(=O)(=O)NC4(C#N)CC4)cc4c(-c5nnc(C(F)F)s5)nn(C)c34)CC1CC2` (stereo partly shown) [Compound 80] gave an IC50 of under 0.1 µM.

`Cn1nc(-c2nnc(C(F)F)s2)c2cc(S(=O)(=O)NC3(C#N)CC3)cc(N3CCC(C(=O)N4CCCC4)CC3)c21` [Compound 89] had an IC50 of under 0.1 µM.

For the compound `CC(C)C(=O)N1C2CCC1CN(c1cc(S(=O)(=O)NC3(C#N)CC3)cc3c(-c4nnc(C(F)F)s4)cn(C)c13)C2` [Compound 123], the IC50 was under 0.1 µM.

Regarding `C[C@H](O)C(=O)N1C2CCC1CN(c1cc(S(=O)(=O)NC3(C#N)CC3)cc3c(-c4nnc(C(F)F)s4)nn(C)c13)C2` [Compound 72], the IC50 was under 0.1 µM.

Compound `CCn1nc(-c2nnc(C(F)F)s2)c2cc(S(=O)(=O)NC3(C#N)CC3)cc(N3CC4CCC(C3)N4C(=O)C(C)C)c21` [Compound 93] gave an IC50 of under 0.1 µM.

With `Cn1nc(-c2nnc(C(F)F)s2)c2cc(S(=O)(=O)NC3(C#N)CC3)cc(N3CCC(C(C)(C)O)CC3)c21` [Compound 76], the IC50 was under 0.1 µM.

`CC(C)C(=O)N1C2C=C(c3cc(S(=O)(=O)NC4(C#N)CC4)cc4c(-c5nnc(C(F)F)s5)nn(C)c34)CC1CC2` (stereo not shown) [Compound 120] yielded an IC50 of under 0.1 µM.

In the case of `COc1ccc(CN(C2(C#N)CC2)S(=O)(=O)c2cc(N3CC4CCC(C3)N4C(=O)C(C)C)c3c(c2)c(-c2nnc(C(F)F)s2)nn3CCO)cc1` [Compound 96], the IC50 lay within 0.1 to 1 µM.
